From ChEMBL document CHEMBL2331172, “Pyrrole and furan oligoglycosides from the starfish Asterina batheri and their inhibitory effect on the production of pro-inflammatory cytokines in lipopolysaccharide-stimulated bone marrow-derived dendritic cells” (Bioorg Med Chem Lett, 2013)

Experiments:
Details in all cases: bmdc
[1] = Antiinflammatory activity in wild-type C57BL/6 mouse BMDCs assessed as inhibition of TNFalpha production incubated for 1 hr prior to LPS challenge measured after 16 hrs by ELISA; type: functional
[2] = Cytotoxicity against wild-type C57BL/6 mouse BMDCs assessed as cell viability by MTT assay
[3] = Antiinflammatory activity in wild-type C57BL/6 mouse BMDCs assessed as inhibition of IL-12 p40 production incubated for 1 hr prior to LPS challenge measured after 16 hrs by ELISA; type: functional
[4] = Antiinflammatory activity in wild-type C57BL/6 mouse BMDCs assessed as inhibition of IL-6 production incubated for 1 hr prior to LPS challenge measured after 16 hrs by ELISA; type: functional

Compound	IC50 [1] [µM]	Activity [2]	IC50 [3] [µM]	IC50 [4] [µM]
CC(=O)c1[nH]ccc1O[C@@H]1O[C@H](C)[C@@H](O[C@@H]2O[C@H](C)[C@H](O)[C@H](O[C@@H]3O[C@H](C)[C@H](O)[C@H](O)[C@H]3O)[C@H]2O)[C@H](O)[C@H]1O[C@@H]1O[C@H](C)[C@@H](O)[C@H](O)[C@H]1O	> 50	Non-toxic	> 50	> 50
CC(=O)c1[nH]ccc1O[C@@H]1O[C@H](C)[C@@H](O[C@@H]2O[C@H](C)[C@H](O)[C@H](O[C@@H]3O[C@H](C)[C@H](O)[C@H](O[C@@H]4O[C@@H](CO)[C@H](O)[C@H]4O)[C@H]3O)[C@H]2O)[C@H](O)[C@H]1O[C@@H]1O[C@H](C)[C@@H](O)[C@H](O)[C@H]1O [ASTEBATHERIOSIDE A]	> 50	Non-toxic	> 50	> 50
CC(=O)c1[nH]ccc1O[C@@H]1O[C@H](C)[C@@H](O[C@H]2OC[C@H](O)[C@H](O)[C@H]2O[C@@H]2O[C@H](C)[C@H](O)[C@H](O[C@@H]3O[C@@H](CO)[C@H](O)[C@H]3O)[C@H]2O)[C@H](O)[C@H]1O[C@@H]1O[C@H](C)[C@@H](O)[C@H](O)[C@H]1O [ASTEBATHERIOSIDE B]		Non-toxic	36.4	
CC(=O)c1[nH]ccc1O[C@@H]1O[C@H](C)[C@@H](O)[C@H](O)[C@H]1O[C@@H]1O[C@H](C)[C@@H](O)[C@H](O)[C@H]1O [ASTEBATHERIOSIDE C]		Non-toxic	31.6	
CC(=O)c1occc1O[C@@H]1O[C@H](C)[C@@H](O[C@@H]2O[C@H](C)[C@H](O)[C@H](O[C@@H]3O[C@H](C)[C@H](O)[C@H](O)[C@H]3O)[C@H]2O)[C@H](O)[C@H]1O[C@@H]1O[C@H](C)[C@@H](O)[C@H](O)[C@H]1O [ASTEBATHERIOSIDE D]		Non-toxic	22.8	
C[S+]([O-])c1ccc(-c2nc(-c3ccc(F)cc3)c(-c3ccncc3)[nH]2)cc1 (stereo not given) [SB-203580]			5	
